Assay [1] concerns the target T1, cysteine-less RGS12 RGS-box protein (Homo sapiens, UniProt O14924, C701S/C748S/C775S/C831S).
T1 construct: human RGS12 RGS-box (aa 695–843 of UniProt O14924); host or cells: E. coli
T1 sequence (O14924 695-843 C701S/C748S/C775S/C831S): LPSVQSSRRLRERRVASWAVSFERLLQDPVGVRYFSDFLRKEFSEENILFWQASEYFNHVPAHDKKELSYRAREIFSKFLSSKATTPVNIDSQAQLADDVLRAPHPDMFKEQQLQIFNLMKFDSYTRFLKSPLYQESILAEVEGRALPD
Put plainly: Transcreener GDP RGScreen assay with cysteine-less RGS12 RGS-box. The conditions noted are these: range given jointly for cysteine-less RGS14 and RGS12 proteins; read-out: estimated IC50, cysteine-less RGS12 RGS-box. Type of assay: biochemical. An excerpt: Given the earlier experience with screening hit CCG-4986 being a covalent modifier of RGS4 cysteine residues ([35]), we sought to exclude protein-thiol reactivity as a potential mechanism of action of the active compounds derived from the AtomNet virtual screening effort ([55]) and SAR campaign follow-ups. To address this possibility and screen out thiol-reactive hits, cysteine-lacking versions of recombinant proteins spanning the RGS-boxes of RGS14 and RGS12 were purified from E. coli cultures.
Reagents and protocols for the fluorescence anisotropy-based Transcreener GDP RGScreen assay using a rate-altered, double point-mutant, recombinant Gαi1 protein have been extensively described previously ([43], [44]); reactions were always performed so that total GTP converted over the time course was consistently less than 10% of reaction maximum input. […] Open-reading frames (ORFs) encoding wild-type versions of the human RGS14 RGS-box (aa 46–195 of UniProt O43566) and human RGS12 RGS-box (aa 695–843 of UniProt O14924) were each sub-cloned in-frame with an N-terminal hexahistidine (His6) expression tag in the plasmid pET30a, expressed in E. coli cultures, and then purified by nickel-nitriloacetate (Ni-NTA) and size-exclusion (Superdex 200) column chromatographies by GenScript using previously described methods ([35]). […]

Assay [2] has as its target T2, RGS14 RGS-box (GAP activity on wild-type Gαi1) (Homo sapiens, UniProt O43566).
T2 sequence (O43566 67-184 limits assumed): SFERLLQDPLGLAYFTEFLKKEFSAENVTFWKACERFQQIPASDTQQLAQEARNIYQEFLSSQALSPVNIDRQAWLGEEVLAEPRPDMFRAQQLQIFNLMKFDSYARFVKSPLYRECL
Put plainly: Single-turnover [γ-33P]GTP hydrolysis assay of RGS-box GAP activity. In kind it is biochemical. The conditions noted are these: wild-type Gαi1, concentration-dependent. An excerpt:
To further evaluate the functional activity of these triazolothiadiazine derivatives, and especially to eliminate concerns of misascribing GAP-inhibitory activity to potential assay interference, we tested two representative compounds—Z55660043 and Z55627844—in the gold-standard single-turnover radioactive GTP hydrolysis assay ([7], [58]) (Fig. 6).
The single-turnover radiolabeled-GTP hydrolysis assay is the gold standard assay for RGS-box GAP activity, first described using [γ -^32P]GTP by Berman et al. ([7]) and recently modified for modern performance ([91], [92], [93], [94]) to use readily available [γ-^33P]GTP substrate and perchloric acid quenching. The assay was performed by first pre-loading wild-type (WT) Gα protein (i.e., 750 nM purified, recombinant, wild-type-sequence human Gαi1 protein) with a slight excess (1 μM) of [γ-^33P]GTP for 15 min at 30 °C. Assay initiation involved adding purified recombinant RGS protein previously pre-incubated for 30 min at 30 °C with a candidate inhibitor. […] Supernatant aliquots were then added to liquid scintillation fluid and [^33P]-Pi content (i.e., hydrolyzed GTP) was quantified with a scintillation counter with an appropriate β-transmission window.

As to `COc1ccc(OCc2nnc3n2N=C(c2ccc(OC)c(OC)c2)CS3)cc1` [Z55660043, 6-(3,4-dimethoxyphenyl)-3-[(4-methoxy-phenoxy)methyl]-5H-[1,2,4]triazolo[3,4-b][1,3,4]thiadiazine], the IC50 in assay [1] is 10 to 19 µM. Moreover, in assay [2], the “inhibition of RGS14 RGS-box-mediated acceleration of [γ-33P]GTP hydrolysis” value is recorded as “inhibit RGS14 RGS-box-mediated acceleration”.

By IC50 is commonly meant the midpoint of a concentration-inhibition curve.

The values are drawn from publication PMC12495443, “Developing inhibitors of the guanosine triphosphate hydrolysis accelerating activity of Regulator of G protein Signaling-14 [drawing 1]” (The Journal of Biological Chemistry, 2025).
